Source: patent US6479466B1, “Compositions for treating viral infections, and methods therefor” (University of Maryland, priority 1999, dated 2002)

Assays:
PHA-activated PBMCs = assay: Cell viability by trypan blue staining in PHA-activated PBMCs; format: cell-based, human
Method: The effect of RV and […] on PBMC proliferation at the concentrations shown to enhance the anti-HIV effect of ddI were examined. Cellular proliferation in culture in the presence or absence of drugs was measured by commercial MTT assay, according to the manufacturer's instructions (Boehringer Mannheim). Cell viability was determined by trypan blue staining.
In a separate study designed to assess cell viability by trypan blue staining, PHA-activated PBMCs were cultured for 7 days in the presence of IL-2, 2 μM ddI, plus varying concentrations of RV. When RV was used at 25 μM, over 60% of cells became trypan blue stained, therefore indicating cell death. In the absence of RV or when RV was used at 5 or 10 μM, values of more than 95% cell viability were obtained.

HIV-165R, 74V, 184V = assay: p24 antigen in activated PBMCs infected with isolate 65R, 74V, 184V; format: cell-based, HIV-1; conditions: Human immunodeficiency virus 1, PBMC, read-out: ddI IC90
Source text: (§1) The present example provides data to test whether viral isolates carrying mutations in the RT gene that confer resistance to ddI could be rendered sensitive when the nucleoside analogue was combined with RV. Viruses containing one or more of the mutations associated with resistance to ddI, e.g., an isolate carrying the L74V mutation which confers primary resistance to ddI, a virus isolate carrying 4 different resistance-associated mutations in the RT gene (HIV-1 RTMDR1) were used to infect PHA-stimulated PBMCs. The HIV-174V isolate, and the HIV-1RTMDR1 isolate (containing the M41L, L74V, V106A and T215Y mutations, conferring resistance to AZT, ddI, nevirapine and other non-nucleotide RT inhibitors) were obtained from Dr. Larder at the National Institutes of Health AIDS Research and Reference Reagent Program (Catalog #2528 and #2529, respectively, Rockville, Md.). In addition, viruses having mutations 65R, 74V, 184V in the RT gene, and a virus containing the multiple-nucleoside-resistance mutation 151M were assayed in infectivity assays using RV plus ddI. The mutations present in the RT gene of each virus as well as their susceptibility to ddI are as follows: HIV-174V(ddIIC90=2.6 μM); HIV-141L, 74V, 106A, 215Y (ddIIC90=4.5 μM); HIV-165R, 74V, 184V (ddIIC90>20 μM) and HIV-162V, 751, 77L, 151M (ddIIC90>20 μM). […]

HIV-162V, 751, 77L, 151M = assay: p24 antigen in activated PBMCs infected with isolate 62V, 75I, 77L, 151M; format: cell-based, HIV-1; conditions: Human immunodeficiency virus 1, PBMC, read-out: ddI IC90
Source text: as §1

[1] = tested on: HIV-174V isolate (L74V mutation in the RT gene); assay: p24 antigen in activated PBMCs infected with ddI-resistant isolate 74V; format: cell-based, HIV-1
Source text: as §1

[2] = tested on: HIV-1RTMDR1 isolate (M41L, L74V, V106A and T215Y); assay: p24 antigen in activated PBMCs infected with isolate RTMDR1; format: cell-based
Source text: as §1

[3] = Human immunodeficiency virus 1, PBMC, read-out: ddI IC90

| Compound | toxicity to cells (PHA-activated PBMCs; RV 10 μM) | trypan blue stained cells (cell death) (PHA-activated PBMCs; RV 25 μM, 7 days, with IL-2 and 2 μM ddI) | cell viability (PHA-activated PBMCs; RV 5 or 10 μM, 7 days, with IL-2 and 2 μM ddI) | IC90 (HIV-165R, 74V, 184V) [µM] | IC90 (HIV-162V, 751, 77L, 151M) [µM] | suppression of viral replication ([1]; 2 μM ddI alone) [%] | IC90 [1, 3] [µM] | suppression of viral replication ([2]; 2 μM ddI alone) [%] | IC90 [2, 3] [µM] |
| --- | --- | --- | --- | --- | --- | --- | --- | --- | --- |
| Oc1ccc(/C=C/c2cc(O)cc(O)c2)cc1 [RV, trans-3, 4′, 5-trihydroxystilbene] | not toxic | over 60% | more than 95% | – | – | – | – | – | – |
| OC[C@@H]1CC[C@H](n2cnc3c(O)ncnc32)O1 [ddI, 2′,3′-dideoxyinosine] | – | – | – | > 20 | > 20 | 28 | 2.6 | 34 | 4.5 |
